In patent US20080119452A1, “METHODS FOR ENHANCING COGNITIVE FUNCTION” (priority 2006, published 2008):
Where two headings read alike, the source gives them in different places.

How the values were obtained:
[1] = test system: rats; assay: Object recognition task (time spent on novel vs familiar object); format: in vivo, rat
From the text: Effect of Compounds in Object Recognition Task
Spending more time on the novel than on the familiar object indicates memory for the latter. Vehicle-treated rats spent a mean of 63% of time on the novel object. The means for all of the doses of test articles were numerically higher with values of: 70 and 78% for galantamine, 71 and 75% for a first representative compound of formula IV, and 73 and 81% for a second representative compound of formula IV.
Ennaceur A and Delacour J (1988) A new one-trial test for neurobiological studies of memory in rats. 1: Behavioral data. Behav Brain Res 31: 47-59.

[2] = test system: mouse; conditions: sub-optimal analgesic dose, cited from earlier work

Row | Compound | % Time Novel Object (Mean ± SEM) ([1]; 0.3 mg/kg p.o., 0.3 mg/kg) [%] | % Time Novel Object (Mean ± SEM) ([1]; 0.3 mg/kg p.o., listed as galantamine, 0.3 mg/kg) [%] | % Time Novel Object (Mean ± SEM) ([1]; 1.7 mg/kg p.o., 1.7 mg/kg) [%] | % Time Novel Object (Mean ± SEM) ([1]; 1.7 mg/kg p.o., listed as galantamine, 1.7 mg/kg) [%] | effect on memory consolidation ([2]; 3 nmol/mouse i.c.v.) | effect on memory consolidation ([2]; 100 mg/kg oral administration)
1 | COc1ccc2c3c1O[C@H]1C[C@@H](O)C=C[C@@]31CCN(C)C2 [Galantamine, galantamine] | 70 ± 6 | 70 | 78 ± 5 | 78 | – | –
2 | rubiscolin-6 | – | – | – | – | enhance memory consolidation | enhance memory consolidation
